Three compounds from US6127396A, “Imidazoline compounds” (Adir et Compagnie, priority 1998, dated 2000) can be followed below.

Where a name gives a salt, the structure may show the parent alone.

Common to all, as to type: binding
The target in assay [1] is T1, noradrenaline reuptake sites (Rattus norvegicus, UniProt Q63380).
T1 construct: The membranes are prepared from the frontal cortex of the rat; from tissue; host or cells: rat frontal cortex membranes
The assay can be described thus: Affinity for noradrenaline reuptake sites in the rat, competition with [3H]-nisoxetine. The note with it: rat frontal cortex membranes, 2 nM [3H]-nisoxetine, 4 hours at 4° C. Here is the method:
Determination of the Affinity for Noradrenaline Reuptake Sites in the Rat
The affinity was determined by competition experiments using [^3 H]-nisoxetine. The membranes are prepared from the frontal cortex of the rat and are incubated in triplicate with 2 nM [^3 H]-nisoxetine and the compound being tested in a final volume of 0.5 ml, for 4 hours at 4° C. The incubation buffer contains 50 mM TRIS-HCl (pH 7.4), 120 mM NaCl and 5 mM KCl. The non-specific binding is determined using 10 μM desipramine.
(§1) At the end of the incubation, the incubation medium is filtered through WHATMAN GF/B filters impregnated with 0.1% of polyethylenimine and washed three times with 5 ml of cooled buffer. The radioactivity retained on the filters is determined by liquid scintillation counting. The binding isotherms are analysed by non-linear regression.

The target in a further assay is T2, serotonin reuptake sites (Rattus norvegicus, UniProt P31652).
T2 construct: The membranes are prepared from the frontal cortex of the rat; from tissue; host or cells: rat frontal cortex membranes
T2 sequence (P31652 whole entry): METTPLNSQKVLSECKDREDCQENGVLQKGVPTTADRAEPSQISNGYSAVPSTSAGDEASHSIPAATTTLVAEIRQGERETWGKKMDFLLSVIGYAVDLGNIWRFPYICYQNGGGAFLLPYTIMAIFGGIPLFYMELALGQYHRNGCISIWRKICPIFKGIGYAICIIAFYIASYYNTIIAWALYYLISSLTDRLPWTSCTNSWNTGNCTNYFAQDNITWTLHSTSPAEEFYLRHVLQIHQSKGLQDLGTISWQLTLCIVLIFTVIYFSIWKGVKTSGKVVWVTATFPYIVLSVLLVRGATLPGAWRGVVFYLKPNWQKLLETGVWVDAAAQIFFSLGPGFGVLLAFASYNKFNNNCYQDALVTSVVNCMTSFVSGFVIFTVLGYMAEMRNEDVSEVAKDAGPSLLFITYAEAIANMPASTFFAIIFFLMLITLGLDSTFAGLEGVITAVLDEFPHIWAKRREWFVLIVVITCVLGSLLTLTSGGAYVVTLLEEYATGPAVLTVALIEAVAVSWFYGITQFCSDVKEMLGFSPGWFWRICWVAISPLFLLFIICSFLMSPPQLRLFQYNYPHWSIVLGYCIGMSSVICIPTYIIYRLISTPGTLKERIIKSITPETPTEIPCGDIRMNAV
The assay can be described thus: Affinity for serotonin reuptake sites in the rat, competition with [3H]-paroxetine. The note with it: rat frontal cortex membranes, 0.25 nM [3H]-paroxetine, 2 hours at 25° C. Here is the method:
Determination of the Affinity for Serotonin Reuptake Sites in the Rat
The affinity was determined by competition experiments using [^3 H]-paroxetine. The membranes are prepared from the frontal cortex of the rat and are incubated in triplicate with 0.25 nM [^3 H]-paroxetine and the compound being tested in a final volume of 0.4 ml, for 2 hours at 25° C. The incubation buffer contains 50 mM TRIS-HCl (pH 7.4), 120 mM NaCl and 5 mM KCN. The non-specific binding is determined using 10 μM citalopram.
as §1

A further assay has as its target α2-adrenergic receptors. In words: Affinity for α2-adrenergic receptors in the rat, competition with [3H]-RX 821,002. The note with it: rat cerebral cortex membranes, 0.4 nM [3H]-RX 821,002, 60 minutes at 22° C. The procedure: Determination of the Affinity for α2 -adrenergic Receptors in the Rat
The affinity was determined by competition experiments with [^3 H]-RX 821,002. The membranes are prepared from the cerebral cortex of the rat and are incubated in triplicate with 0.4 nM [^3 H]-RX 821,002 and the compound being tested in a final volume of 1.0 ml, for 60 minutes at 22° C. The incubation buffer contains […] TRIS-HCl (pH 7.5), 1 mM EDTA and 100 μM GppNHp. The non-specific binding is determined using 10 μM phentolamine.
as §1

T1 sequence (Q63380 1-617): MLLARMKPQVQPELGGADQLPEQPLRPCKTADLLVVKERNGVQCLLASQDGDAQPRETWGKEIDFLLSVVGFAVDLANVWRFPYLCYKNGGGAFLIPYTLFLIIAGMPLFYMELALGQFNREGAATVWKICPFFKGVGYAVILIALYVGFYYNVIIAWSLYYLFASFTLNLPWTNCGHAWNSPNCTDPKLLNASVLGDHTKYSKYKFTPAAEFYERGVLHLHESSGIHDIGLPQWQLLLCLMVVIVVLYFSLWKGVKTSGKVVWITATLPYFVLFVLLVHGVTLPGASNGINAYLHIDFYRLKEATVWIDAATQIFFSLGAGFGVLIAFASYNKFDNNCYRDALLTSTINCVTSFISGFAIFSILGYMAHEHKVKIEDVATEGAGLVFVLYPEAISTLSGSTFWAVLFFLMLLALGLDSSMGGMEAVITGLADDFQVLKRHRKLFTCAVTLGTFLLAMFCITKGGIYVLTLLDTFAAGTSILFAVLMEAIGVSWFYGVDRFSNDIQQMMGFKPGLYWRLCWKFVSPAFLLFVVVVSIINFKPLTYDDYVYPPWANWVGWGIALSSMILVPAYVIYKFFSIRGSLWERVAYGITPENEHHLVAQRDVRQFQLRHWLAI

The term Ki denotes a dissociation constant, usually derived from enzyme kinetics or from competition with a known ligand. Take `C1=N[C@H](CC2=Cc3ccccc3CC2)CN1` [Example 2, (4R)-4-(3,4-dihydro-2-naphthylmethyl)-4,5-dihydro-1H-imidazole fumarate]: the Ki in assay [1] is 15.8 nM.

What is called pKi is the Ki on a negative log10 scale, so that one unit is a factor of ten. Read a high pKi as a low Ki. In the case of `COc1cccc2c1C=C(CC1CNC=N1)CC2.O=C(O)/C=C/C(=O)O` (stereo not drawn) [Example 12, 4-[(8-Methoxy-3,4-dihydro-2-naphthyl)methyl]-4,5-dihydro-1H-imidazole fumarate], the pKi at serotonin reuptake sites was 7.8.

`C1=NCC(CC2Cc3ccccc3C2)N1` (stereo not drawn) [Example 22, 4-(2,3-Dihydro-1H-inden-2-ylmethyl)-4,5-dihydro-1H-imidazole hemi-fumarate] yielded a pKi at α2-adrenergic receptors of 8.8.
